In patent US6492416B1, “4,5-diaryl-3(2H)-furanone derivatives as cyclooxygenase-2 inhibitors” (Pacific Corporation, priority 1999, dated 2002):
Values after ≈ are worked out from the molar mass of the structure shown.

What was measured:
COX-2 = molecular target: T1, COX-2 (Mus musculus, UniProt Q05769); assay: Evaluation of COX-2 activity: PGE2 formation in aspirin-treated, LPS-stimulated mouse peritoneal macrophages; format: cell-based
T1 sequence (Q05769 18-604): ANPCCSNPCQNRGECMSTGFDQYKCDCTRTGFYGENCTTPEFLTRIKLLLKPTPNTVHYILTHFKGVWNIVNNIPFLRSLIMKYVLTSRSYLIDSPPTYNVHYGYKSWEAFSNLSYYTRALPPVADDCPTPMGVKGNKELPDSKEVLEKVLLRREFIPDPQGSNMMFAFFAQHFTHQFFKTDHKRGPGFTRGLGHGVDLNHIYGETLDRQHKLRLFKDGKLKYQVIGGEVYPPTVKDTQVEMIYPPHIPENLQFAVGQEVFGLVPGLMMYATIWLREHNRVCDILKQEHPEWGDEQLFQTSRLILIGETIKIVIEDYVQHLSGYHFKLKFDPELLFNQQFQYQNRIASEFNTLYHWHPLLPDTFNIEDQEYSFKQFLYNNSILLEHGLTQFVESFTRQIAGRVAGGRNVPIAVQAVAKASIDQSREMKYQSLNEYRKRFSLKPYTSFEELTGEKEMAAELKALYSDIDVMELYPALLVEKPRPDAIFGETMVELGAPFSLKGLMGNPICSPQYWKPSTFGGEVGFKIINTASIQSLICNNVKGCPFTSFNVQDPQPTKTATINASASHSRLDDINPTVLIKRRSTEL
Procedure, shortened: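 C57BL/6 peritoneal macrophages treated with 500 μM aspirin to block COX-1, adhered, then stimulated with 10 μg/ml LPS for 16 h at 37 °C to induce COX-2.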

COX-1 = molecular target: T2, COX-1 (Mus musculus, UniProt P22437); assay: Evaluation of COX-1 activity: PGE2 formation in mouse peritoneal macrophages without aspirin and LPS treatment; format: cell-based
T2 sequence (P22437 27-602): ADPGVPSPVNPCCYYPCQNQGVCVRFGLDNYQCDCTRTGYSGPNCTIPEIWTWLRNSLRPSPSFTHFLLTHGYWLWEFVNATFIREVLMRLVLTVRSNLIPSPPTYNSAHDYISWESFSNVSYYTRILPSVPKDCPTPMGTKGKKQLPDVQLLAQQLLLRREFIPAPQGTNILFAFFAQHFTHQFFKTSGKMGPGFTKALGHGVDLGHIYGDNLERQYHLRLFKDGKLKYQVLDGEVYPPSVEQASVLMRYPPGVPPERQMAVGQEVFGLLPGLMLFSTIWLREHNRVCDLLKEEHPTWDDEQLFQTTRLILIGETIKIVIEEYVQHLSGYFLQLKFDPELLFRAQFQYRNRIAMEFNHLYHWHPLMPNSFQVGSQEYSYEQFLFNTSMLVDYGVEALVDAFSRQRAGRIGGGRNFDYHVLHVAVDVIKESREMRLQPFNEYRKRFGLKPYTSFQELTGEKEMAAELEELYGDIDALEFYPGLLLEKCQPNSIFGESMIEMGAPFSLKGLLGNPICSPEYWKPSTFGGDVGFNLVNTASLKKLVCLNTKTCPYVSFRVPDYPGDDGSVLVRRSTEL
Procedure, shortened: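 Peritoneal macrophages from C57BL/6 mice, without aspirin or LPS treatment, were plated at 1×10^6 cells/ml and fixed 2 h at 37 °C. Cells were preincubated 10 min, then given 10 μM arachidonic acid plus compound for 10 min; PGE2 was measured by RIA or EIA. IC50 came from 4–5 concentrations.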

male SD rat = assay: Gastric safety studies (Ulcer Index); format: in vivo; conditions: daily dose 30 mg/kg body weight oral for 7 days, mean of animals' scores
Experimental: Gastric safety for compounds of this invention was evaluated as follows [Otterness et al., Laboratory Models for Testing Nonsteroidal Anti-inflammatory Drugs in Nonsteroidal Anti-inflammatory Drugs; ed John Wiley & Sons pp 217-227 (1985); Wiley Interscience; New York]: A designated dose of a compound of this invention suspended in 1% methylcellulose solution was administered daily once for 7 days to a male SD rat by oral gavage. The animal was sacrificed and the inner wall of the stomach was examined visually 4 hours after the last administration (the 7th day administration). The gastric safety was assessed by the “Ulcer Index” as defined as the following scores: […]
Score 1: apparently normal stomach.
Score 2: one or more than one ulcer site of pin-point size only.
Score 3: erosions of 2 or fewer than 2, which may be accompanied by ulcers of pin-point size (an erosion is defied by any ulcerative lesion of any dimension greater than 1 mm).
Score 4: erosions more than 2, which may be accompanied by ulcers of pin-point size.
Score 5: erosions accompanied by hemorrhage.
In evaluating the gastric safety of a compound of this invention, usually 8 animals were used. The ulcer index for a compound was calculated by averaging of the ulcer index of each animal. The following Table 5 illustrates gastric safety of some COX-2 selective inhibitors of this invention.

[1] = test system: male Sprague-Dawley (SD) rats; assay: Carrageenan-induced foot edema in rats (CFE); format: in vivo; conditions: rat, paw volume 3 hours after Carrageenan
Experimental: An appropriate amount of a compound of this invention suspended in 1% methylcellulose (MC) solution was administered to male Sprague-Dawley (SD) rats weighing 150˜200 g by oral gavage. The volume of the administered vehicle for a compound of this invention was controlled to be smaller than 10 ml/kg body weight of the animal. One hour later, 0.1 ml of 1% Carrageenan saline solution was directly injected into the right paw of the rats to induce edema in the paw. The paw volumes at 0 hour and at 3 hours after the injection of Carrageenan were measured by using a displacement plethysmometer (Ugo Basile, Italy). The paw volumes were used to calculate % inhibition of CFE by an amount of a compound of this invention according to the following equation.
% Inhibition of CFE=(1−Δtreated/Δcontrol)×100
wherein Δtreated=[paw volume at three hours after the Carrageenan injection−paw volume right after Carrageenan injection] for a drug-administered rat, and Δcontrol=[paw volume at three hours after the Carrageenan injection−paw volume right after Carrageenan injection] for a rat without drug administration.
In order to determine the inhibitory activity of a compound of this invention at a dose, usually 5 to 8 animals were used both for drug-treated group and for control group.

male SD rats [2] = assay: Antiinflammatory potency by adjuvant arthritis (AA); format: in vivo; conditions: daily oral dose day 14 to day 22, rat
Experimental: Arthritis was induced in male SD rats weighing 180-200 g by subcutaneous injection of Mycobacterium butyricum mixed in 0.1 ml of incomplete Freund's adjuvanat into the base of the tail. The foot volumes were measured using a displacement plethysomometer 14 days after the injection of the adjuvant. Animals with paw volumes greater than the normal paw volumes (without the adjuvant treatment) by 0.37 ml were selected, and then randomized. A designated daily dose of a compound of this invention, which was suspended in 1% aqueous methylcellulose solution, was administered to the randomized rats with arthritis by oral gavage daily once beginning on day 14 after the injection of the adjuvant. The administration of the compound continued till day 22 after the injection of the adjuvant, and the paw volumes were measured on daily basis using a displacement plethysmometer.
% Inhibition of AA=(1−Δtreated/Δcontrol)×100
wherein Δtreated=[(paw volume at day 22)/(paw volume at day 14)−1] for a drug-administered rat, and Δcontrol=[(paw volume at day 22)/(paw volume at day 14)−1] for a rat without drug administration.
ED50 value was determined b a dose-response curve for each compound.

[3] = Pharmacokinetic studies in rats; format: in vivo, rat; conditions: Example 393 orally administered to a SD rat at 10 mg/kg body weight; plasma, HPLC (FIG. 1)
Experimental: An appropriate amount of a compound suspended 1% aqueous methylcellulose solution was administered to a male SD rat by oral gavage. Blood samples were collected from the retro-orbital sinus at designated times over 24˜48 hours. Plasma was separated from each blood sample by centrifugation and the plasma was stored at 4° C. until analysis. The plasma samples prepared thereby were subjected to analysis by reverse phase HPLC (high performance liquid chromatography) using an appropriate internal standard.

male SD rats [4] = assay: Carrageenan-induced thermal hyperalgesia assay; format: in vivo, rat; conditions: 3 hours
Experimental: Male SD rats weighing 170˜220 g were fasted but with free access to water for at leat 16 hours prior to testing. The rats were administered with a compound of this invention suspended in 20 ml 0.5% methylcellulose/0.025% Tween-20, or with vehicle only. Then the rats were given […] of 1% carrageenan in saline or […] saline only into the plantar surface of the left hindpaw by injection. Three hours later, the nociceptive responses to thermal stimuli were assessed as follows: Rats, which were placed in a transparent plastic chamber with a glass floor, were allowed to acclimate to their environment for 10 minutes prior to the testing. The withdrawal latency period in seconds was determined for the control and the compound treated group, and a percent inhibition in the withdrawal latency was calculated to estimate the analgesic effect of the compound [Pain 32, 77 (1988)]. In this study 6 animals were used for each group.

ICR mice = assay: Acetic acid-induced writhing test; format: in vivo, mouse; conditions: oral gavage
Experimental: ICR mice weighing 18˜22 g were maintained in a controlled lighting environment (12 hours on/12 hours off) and fasted overnight prior analgesic testing. Mice were administered with a compound of this invention dissolved in 10:10:80 ethanol/Tween 80/saline or vehicle only by oral gavage. The administered vehicle volume was controlled to be 10 ml/kg body weight. One hour later, the animals were treated with 0.2 ml of 1.2% acetic acid by peritoneal injection. 6 minutes later, the number of abdominal constrictions was counted for a 6 minutes period. The antinociceptive activity was expressed as the reduction in the number of abdominal constrictions, compared with that of the placebo group [J. Med. Chem. 39, 4942 (1996)]. ED50 of the mouse writhing test denotes a dose level at which the number of abdominal constrictions is half that of the placebo group. Ten animals per group were used for this study.

Row | IC50, μg/ml COX-2 (COX-2) [µg/mL] | IC50, μg/ml COX-1 (COX-1) [µg/mL] | melting point [°C] | biotransformation of the sulfoxide group into the sulfonyl group [3] | Compound | Ulcer Index (1˜5) (male SD rat) | % Inhibition (CFE) ([1]; oral dose 3 mg/kg body weight) [%] | Adjuvant Arthritis ED50 (male SD rats [2]) [mg/kg body weight] | % Inhibition (CFE) ([1]; oral dose 1 mg/kg body weight) [%] | % Inhibition at 1.0 mg/kg body weight (rat hyperalgesia) (male SD rats [4]) [%] | ED50 (mouse writhing) (ICR mice) [mg/kg body weight]
1 | 0.3 (≈ 0.78 µM) | 50 (≈ 130 µM) | – | – | CC(=O)c1ccc(C2=C(c3ccc(S(C)(=O)=O)cc3)OC(C)(C)C2=O)cc1 [Example 10, 4-(4-Acetylphenyl)-2,2-dimethyl-5-{4-(methylsulfonyl)phenyl}-3(2H)-furanone] | 1.2 ± 0.4 | – | – | – | – | –
2 | – | – | 115 to 116 | – | CC1(C)OC(c2ccc(S(C)(=O)=O)cc2)=C(c2cccc(C(F)(F)F)c2)C1=O [Example 14] | – | 32 | 0.06 | – | – | –
3 | 0.03 (≈ 0.0791 µM) | 5 (≈ 13.2 µM) | 178 to 179 | – | CC1(C)OC(c2ccc(S(N)(=O)=O)c(F)c2)=C(c2cccc(F)c2)C1=O [Example 302] | – | 27 | – | – | – | –
4 | 0.03 (≈ 0.0791 µM) | 3 (≈ 7.91 µM) | 190 to 192 | – | CC1(C)OC(c2ccc(S(N)(=O)=O)c(F)c2)=C(c2ccc(F)cc2)C1=O [Example 303] | – | 30 | – | – | – | –
5 | 0.03 (≈ 0.0755 µM) | 3 (≈ 7.55 µM) | 199 to 200 | – | CC1(C)OC(c2ccc(S(N)(=O)=O)c(F)c2)=C(c2ccc(F)c(F)c2)C1=O [Example 311] | – | 30 | – | – | – | –
6 | 0.003 (≈ 0.00791 µM) | 10 (≈ 26.4 µM) | 168 to 170 | – | CC1(C)OC(c2ccc(S(N)(=O)=O)cc2F)=C(c2cccc(F)c2)C1=O [Example 333] | – | 25 | – | – | – | –
7 | 0.003 (≈ 0.00755 µM) | 3 (≈ 7.55 µM) | 185 to 187 | – | CC1(C)OC(c2ccc(S(N)(=O)=O)cc2F)=C(c2cc(F)cc(F)c2)C1=O [Example 335] | – | 32 | – | – | – | –
8 | 0.03 (≈ 0.0683 µM) | 50 (≈ 114 µM) | 133 to 134 | – | CC1(C)OC(c2ccc(S(C)(=O)=O)c(Br)c2)=C(c2cccc(F)c2)C1=O [Example 343] | – | 25 | – | – | – | –
9 | 0.02 (≈ 0.0507 µM) | 200 (≈ 507 µM) | 163 to 164 | – | CC1(C)OC(c2ccc(S(C)(=O)=O)c(Cl)c2)=C(c2cccc(F)c2)C1=O [Example 359] | – | 28 | – | – | – | –
10 | 0.009 (≈ 0.0218 µM) | 4 (≈ 9.69 µM) | 150 to 151 | – | CC1(C)OC(c2ccc(S(C)(=O)=O)c(Cl)c2)=C(c2ccc(F)c(F)c2)C1=O [Example 361] | – | 41 | – | – | – | –
11 | 0.02 (≈ 0.0505 µM) | 50 (≈ 126 µM) | 149 to 150 | – | CC1(C)OC(c2ccc(S(N)(=O)=O)c(Cl)c2)=C(c2cccc(F)c2)C1=O [Example 369] | – | 28 | – | – | – | –
12 | 0.3 (≈ 0.831 µM) | 5 (≈ 13.9 µM) | – | biotransformed into the sulfonyl group | C[S+]([O-])c1ccc(C2=C(c3cccc(Cl)c3)C(=O)C(C)(C)O2)cc1 (stereo not drawn) [Example 393, 4-(3-Chlorophenyl)-2,2-dimethyl-5-{4-(methylsulfinyl)phenyl}-3(2H)-furanone] | – | – | – | – | – | –
13 | – | – | – | – | COc1ccc2c(c1)c(CC(=O)O)c(C)n2C(=O)c1ccc(Cl)cc1 [indomethacin, reference compound] | – | – | – | 28 | 45 | 7.4
